Assay results from US10034886B2, “GLP-1 receptor modulators” (Celgene International II SÀRL, priority 2014, dated 2018).
Where two headings read alike, the source gives them in different places.

Biological target: T1, GLP-1R (Homo sapiens, UniProt P43220)
T1 construct: host or cells: GLP-1R CRE-bla CHO-K1 cells
Experiment: EC20 GLP-1(9-36) PAM cAMP assay: dose response of compound in the presence of fixed concentration of GLP-1(9-36)
Assay type: cell-based
Conditions: GLP-1R CRE-bla CHO-K1 cells, read-out: EC20 GLP-1(9-36) PAM EC50
In short: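 Positive allosteric modulation read as cAMP accumulation: compound titrations (12 points) combined with an EC20 level of GLP-1(9-36) on CHO-K1 GLP-1R CRE-bla cells, IBMX present, 30 min, 37 °C, pH 7.4 buffer. Luminescence converted to cAMP via standards; non-linear fit gave EC50 and Emax.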

[1] = dose response of compound in presence of fixed concentration of GLP-1(9-36)
[2] = compound dose response with fixed concentration of GLP-1(9-36)

T1 sequence (P43220 24-463): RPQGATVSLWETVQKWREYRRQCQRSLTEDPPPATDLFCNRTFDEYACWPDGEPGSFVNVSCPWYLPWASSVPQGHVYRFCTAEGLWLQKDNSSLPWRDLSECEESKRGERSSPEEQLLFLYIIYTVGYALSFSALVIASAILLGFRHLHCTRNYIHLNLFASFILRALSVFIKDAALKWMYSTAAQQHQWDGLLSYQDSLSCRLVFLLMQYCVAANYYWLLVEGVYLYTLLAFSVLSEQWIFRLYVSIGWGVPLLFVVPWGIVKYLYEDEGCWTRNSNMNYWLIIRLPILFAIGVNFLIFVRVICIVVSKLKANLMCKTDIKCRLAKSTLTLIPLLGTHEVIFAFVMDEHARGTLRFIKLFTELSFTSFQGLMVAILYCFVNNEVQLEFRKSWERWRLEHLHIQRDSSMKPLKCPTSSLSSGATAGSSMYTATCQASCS
T1 sequence (P01275 100-127 partner limits assumed): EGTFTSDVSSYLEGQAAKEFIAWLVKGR

Compound	EC50 [1] [nM]	EC50 [2] [nM]
CCCCCCCOc1ccc(-c2cnc(-c3ccc(C[C@@H](NC(=O)c4ccc(C(C)(C)C)cc4)C(=O)N[C@H](C)C(=O)O)cc3)nc2)cc1 [Compound 437]	< 800	
CCCCCCCOc1ccc(-c2cnc(-c3ccc(C[C@H](NC(=O)c4ccc(C(C)C)s4)C(=O)N[C@H](C)C(=O)O)cc3)nc2)cc1 [Compound 841]	800 to 2500	
C[C@@H](NC(=O)[C@H](Cc1ccc(-c2ncc(-c3cccc(N4CCCCC4)c3)cn2)cc1)NC(=O)c1ccc(C(C)(C)C)s1)C(=O)O [Compound 1284]		800 to 2500
CC(C)CCCOc1ccc(-c2cnc(-c3ccc(C[C@H](NC(=O)c4ccc(C(C)(C)C)nc4)C(=O)N4CC(C(=O)O)C4)cc3)nc2)cc1 [Compound 1231]		800 to 2500
C[C@@H](NC(=O)[C@H](Cc1ccc(-c2ncc(-c3ccc(-c4cccc(F)c4)cc3)cn2)cc1)NC(=O)c1ccc(C(C)(C)C)s1)C(=O)O [Compound 1134]	800 to 2500	
CCCCCCCOc1ccc(-c2cnc(-c3ccc(C[C@H](NC(=O)c4ccc(C(C)(C)C)s4)C(=O)N[C@H](CC(=O)O)C(=O)NC)cc3)nc2)cc1 [Compound 630]	< 800	
CC[C@H]1CC[C@H](c2ccc(-c3cnc(-c4ccc(C[C@H](NC(=O)Cc5ccc(C(C)(C)C)s5)C(=O)N5CC(C(=O)O)C5)cc4)nc3)cc2)CC1 [Compound 1279]		2500 to 5000
C[C@@H](NC(=O)[C@H](Cc1ccc(-c2ncc(-c3ccc(C(=O)NCC4CCCCC4)cc3)cn2)cc1)NC(=O)c1ccc(C(C)(C)C)s1)C(=O)O [Compound 1043]	2500 to 5000	
CCCCCCCOc1ccc(-c2cnc(-c3ccc(C[C@H](NC(=O)c4ccc(C(C)(C)C)cc4)C(=O)NCC(CC4CCOCC4)C(=O)O)cc3)nc2)cc1 (stereo partly shown) [Compound 559]	5000 to 10000	
CCCCCCCOc1ccc(-c2cnc(-c3ccc(C[C@H](NC(=O)c4ccc(C(C)(C)C)s4)C(=O)N[C@@H](Cc4cscn4)C(=O)O)cc3)nc2)cc1 [Compound 627]	< 800	
CCCCCCCOc1ccc(-c2cnc(-c3ccc(C[C@H](NC(=O)c4ccc(CCCC)cc4)C(=O)N[C@H](C)C(=O)O)cc3)nc2)cc1 [Compound 821]	800 to 2500	
Cc1ccc(-c2ccc(-c3cnc(-c4ccc(C[C@H](NC(=O)c5ccc(C(C)(C)C)s5)C(=O)N[C@H](C)C(=O)O)cc4)nc3)s2)cc1 [Compound 1302]		5000 to 10000
CCC[C@H]1CC[C@H](C2CCN(c3cnc(-c4ccc(C[C@H](NC(=O)c5ccc(C(C)(C)C)s5)C(=O)NC(CCN)C(=O)O)cc4)nc3)CC2)CC1 (stereo partly shown) [Compound 1471]		< 800
CCCCCCCOc1ccc(-c2cnc(-c3ccc(C[C@H](NC(=O)c4ccc(C(C)(C)C)s4)C(=O)NCC4CCNCC4)cc3)nc2)cc1 [Compound 463]	5000 to 10000	
CCCCCCCOc1ccc(-c2cnc(-c3ccc(C[C@H](NC(=O)c4ccc(C(C)(C)C)s4)C(=O)N[C@H](C(=O)O)[C@H](C)CC)cc3)nc2)cc1 [Compound 657]	800 to 2500	
CCCCCCCOc1ccc(-c2cnc(-c3ccc(C[C@H](NC(=O)c4ccc(C(C)(C)C)s4)C(=O)N[C@@H](CC(=O)O)C(=O)N4CCNCC4)cc3)nc2)cc1 [Compound 534]	800 to 2500	
CCCCCCCOc1ccc(-c2cnc(-c3ccc(C[C@H](NC(=O)c4ccc(C(C)(C)C)s4)C(=O)NC(C(=O)O)c4cccc(OC)c4)cc3)nc2)cc1 (stereo partly shown) [Compound 629]	800 to 2500	
CCC[C@H]1CC[C@H](C2CCN(c3cnc(-c4ccc(C[C@H](NC(=O)c5ccc(C(C)(C)C)s5)C(=O)N5CC(C)(C(=O)O)C5)cc4)nc3)CC2)CC1 [Compound 1450]		< 800
CCCCCCCOc1ccc(-c2cnc(-c3ccc(C[C@H](NC(=O)c4ccc(C(C)(C)C)s4)C(=O)NC4CCNC4)cc3)nc2)cc1 (stereo partly shown) [Compound 984]	2500 to 5000	
CC(=O)c1ccc(-c2ccc(-c3cnc(-c4ccc(C[C@H](NC(=O)c5ccc(C(C)(C)C)s5)C(=O)N[C@H](C)C(=O)O)cc4)nc3)cc2)cc1 [Compound 1292]		< 800
CCCCCCOc1ccc(-c2cnc(-c3ccc(C[C@H](NC(=O)c4ccc(C(C)(C)C)cc4)C(=O)NCCC(=O)O)cc3)nc2)cc1 [Compound 490]	800 to 2500	
CC(C)(C)c1ccc(C(=O)NC(Cc2ccc(-c3ncc(N4CCC(c5ccccc5F)CC4)cn3)cc2)C(=O)N2CC(C(=O)O)C2)s1 (stereo not shown) [Compound 1491]		800 to 2500
CCCCCCCOc1ccc(-c2cnc(-c3ccc(C[C@H](NC(=O)c4ccc(C(C)(C)C)s4)C(=O)NC(Cc4c[nH]c5ncccc45)C(=O)O)cc3)nc2)cc1 (stereo partly shown) [Compound 626]	< 800	
CCCCCCCOc1ccc(-c2cnc(-c3ccc(C[C@H](NC(=O)c4ccc(C(C)(C)C)s4)C(=O)N4CCC(NC)CC4)cc3)nc2)cc1 [Compound 464]	5000 to 10000	
C/C=C/CCCOc1ccc(-c2cnc(-c3ccc(C[C@H](NC(=O)c4ccc(C(C)C)cc4)C(=O)NCCC(=O)O)cc3)nc2)cc1 [Compound 714]	2500 to 5000	

Compound	EC50 [1] [nM]	EC50 [2] [nM]
CCCCCCCOc1ccc(-c2cnc(-c3ccc(C[C@H](NC(=O)c4ccc(C(C)(C)C)cc4)C(=O)N[C@@H](CC4CCCNC4)C(=O)O)cc3)nc2)cc1 (stereo partly shown) [Compound 577]	2500 to 5000	
CCCCCCCOc1ccc(-c2cnc(-c3ccc(C[C@H](NC(=O)c4ccc(C(C)(C)C)cc4)C(=O)N4CC(O)CC(C(=O)O)C4)cc3)nc2)cc1 (stereo partly shown) [Compound 662]	< 800	
CCC[C@H]1CC[C@H](c2ccc(-c3cnc(-c4ccc(C[C@H](NC(=O)c5ccc(C(C)(C)C)s5)C(=O)N5CC(C(=O)O)C5)cc4)nc3)cc2)CC1 [Compound 1343, 1-((S)-2-(5-(tert-butyl)thiophene-2-carboxamido)-3-(4-(5-(4-((1s,4r)-4-propylcyclohexyl)phenyl)pyrimidin-2-yl)phenyl)propanoyl)azetidine-3-carboxylic acid]		< 800
CCCCCCCOc1ccc(-c2cnc(-c3ccc(C[C@H](NC(=O)c4ccc(C(C)(C)C)s4)C(=O)N4CC[C@H](C(=O)Nc5nnn[nH]5)C4)cc3)nc2)cc1 [Compound 885]	5000 to 10000	
CCCCCCCOc1ccc(-c2cnc(-c3ccc(C[C@H](NC(=O)c4ccc(C(C)(C)C)s4)C(=O)NS(=O)(=O)c4ccccc4)cc3)nc2)cc1 [Compound 423]	800 to 2500	
CC(C)(C)c1ccc(C(=O)N[C@@H](Cc2ccc(-c3ncc(-c4ccc(OCCN5CCCCC5)cc4)cn3)cc2)C(=O)O)s1 [Compound 1353]		5000 to 10000
CCC(C)(C)c1ccc(C(=O)N[C@@H](Cc2ccc(-c3ncc(-c4ccc([C@H]5CC[C@H](CC)CC5)cc4)cn3)cc2)C(=O)O)cc1 [Compound 1375]		800 to 2500
CCCCCCCOc1ccc(-c2cnc(-c3ccc(C[C@H](NC(=O)c4ccc(C(C)(C)C)cc4)C(=O)NC(CC(=O)O)c4ccccc4O)cc3)nc2)cc1 (stereo partly shown) [Compound 581]	800 to 2500	
CC[C@H]1CC[C@H](c2ccc(-c3cnc(-c4ccc(C[C@H](NC(=O)c5ccc(OC(F)(F)F)cc5)C(=O)O)cc4)nc3)cc2)CC1 [Compound 1384]		800 to 2500
CC(C)Oc1ccc(-c2cnc(-c3ccc(C[C@H](NC(=O)c4ccc(C(C)(C)C)s4)C(=O)N4CC(C(=O)O)C4)cc3)nc2)cc1 [Compound 782]	800 to 2500	
CCCCCCCOc1ccc(-c2cnc(-c3ccc(C[C@H](NC(=O)c4ccc(C(C)(C)C)s4)C(=O)N[C@H](C(=O)O)[C@@H](C)c4ccccc4)cc3)nc2)cc1 [Compound 909]	2500 to 5000	
CCc1ccc(/C=C\c2cnc(-c3ccc(C[C@H](NC(=O)c4ccc(C(C)(C)C)s4)C(=O)N[C@H](C)C(=O)O)cc3)nc2)cc1 [Compound 1277]		800 to 2500
CCC[C@H]1CC[C@H](C2CCN(c3cnc(-c4ccc(C[C@H](NC(=O)c5ccc(C(C)(C)C#N)s5)C(=O)N5CC(C(=O)O)C5)cc4)nc3)CC2)CC1 [Compound 1513]		< 800
CC[C@H]1CC[C@H](c2ccc(-c3cnc(-c4ccc(C[C@H](NC(=O)c5ccc(C(C)(C)C)s5)C(=O)N5CCC[C@H]5C(=O)O)cc4)nc3)cc2)CC1 [Compound 1128, ((S)-2-(5-(tert-butyl)thiophene-2-carboxamido)-3-(4-(5-(4-((1r,4r)-4-ethylcyclohexyl)phenyl)pyrimidin-2-yl)phenyl)propanoyl)-L-proline]	< 800	
C[C@@H](NC(=O)[C@H](Cc1ccc(-c2ncc(-c3ccc(C4CCC(C)(C)CC4)cc3)cn2)cc1)NC(=O)c1ccc(C(C)(C)C)s1)C(=O)O [Compound 1316]		< 800
Cc1ccc(-c2ccc(-c3cnc(-c4ccc(C[C@H](NC(=O)c5ccc(C(C)(C)C)s5)C(=O)N[C@H](C)C(=O)O)cc4)nc3)cc2F)cc1 [Compound 1139]	< 800	
CCCCCCCOc1ccc(-c2cnc(-c3ccc(C[C@H](NC(=O)c4ccc(C(C)(C)C)s4)C(=O)N(C)CC4CCN(CCOC)CC4)cc3)nc2)cc1 [Compound 971]	2500 to 5000	
CCCCCCCOc1ccc(-c2cnc(-c3ccc(C[C@H](NC(=O)c4ccc(C(C)(C)C)nc4)C(=O)N4CCC[C@H]4C(=O)O)cc3)nc2)cc1 [Compound 1077]	800 to 2500	
CCCCCCCOc1ccc(-c2cnc(-c3ccc(C[C@H](NC(=O)c4ccc(C(C)(C)C)s4)C(=O)NC(C(=O)O)C(O)C(C)(C)C)cc3)nc2)cc1 (stereo partly shown) [Compound 918]	5000 to 10000	
CC[C@H]1CC[C@H](c2ccc(-c3cnc(-c4ccc(C[C@H](NC(=O)c5ccc(S(C)(=O)=O)cc5)C(=O)O)cc4)nc3)cc2)CC1 [Compound 1379]		< 800
CCc1ccc(C(=O)N[C@@H](Cc2ccc(-c3ncc(-c4ccc([C@H]5CC[C@H](CC)CC5)cc4)cn3)cc2)C(=O)N2CC(C(=O)O)C2)s1 [Compound 1153]	< 800	
CC(C)CCCOc1ccc(-c2cnc(-c3ccc(C[C@H](NC(=O)c4ccc(S(C)(=O)=O)s4)C(=O)N4CC(C(=O)O)C4)cc3)nc2)cc1 [Compound 1246]		< 800
C[C@@H](NC(=O)[C@H](Cc1ccc(-c2ncc(-c3ccc(OC(F)(F)F)c(OCC4CC4)c3)cn2)cc1)NC(=O)c1ccc(C(C)(C)C)s1)C(=O)O [Compound 1027]	5000 to 10000	
CCCCCCOc1ccc(-c2ccc(-c3ccc(C[C@H](NC(=O)c4ccc(C(C)(C)C)cc4)C(=O)O)cc3)cn2)cc1 [Compound 270]	2500 to 5000	
